Measurements as given in paper PMC9666886, “Molecular characteristics of glutathione transferase gene family in a neglect medical Spirometra tapeworm” (Frontiers in Veterinary Science, 2022).

B1: rSmGST (Spirometra erinaceieuropaei) (protein)
chain: MGSLPVLEYWKIRGLAQAIRLLFHYLGQEYVEELYEAGGPPDFSREPWLKHKFNKGLDFPNLPYLIDDGFKITQSGAILEYVADKHGMLPTSAKERAVLHMLQNELSGFRASYGRLVYNPDFSKLKQGFLDELPQKLRLWSNYLGDKQWLTGDKIQYPDFNLYDFLDALQNLEPSCLKDFPNLQRYMKRFEDLDKIKEFQKSDAYIAHPFNNTVAAWRGDA

Columns and labels:
rSmGST [1] = molecular target: T1, rSmGST (Spirometra mansoni, UniProt I1SZ68); experiment: biochemical; type: biochemical; settings: for Ki / IC50: 4 mM GSH; for Ki: CDNB varied 0.20 to 2.0 mM, secondary plot of 1/v intercept vs inhibitor concentration; for inhibition pattern: CDNB as the variable substrate, double-reciprocal plots; for maximal slope at IC50 of fractional velocity vs log inhibitor concentration: Supplementary Figure S4; for IC50: concentration giving 50% inhibition, percent residual activity vs log inhibitor concentration, 1 mM CDNB, pH 6.5
Experimental: (§1) The effect of temperature on rSmGST was carried out by keeping the enzyme at different temperatures (15, 20, 25, 30, 35, 40, 45, 50, and 55°C) for 10 min, and then enzyme activity was assayed immediately. The effect of pH on rSmGST was carried out using the phosphate buffer having different pH from 5.5 to 10. Activity of enzyme was determined in 100 mM potassium phosphate buffer (pH 6.5) with 1 mM l-chloro-2,4-dinitrobenzene (CDNB) and 4 mM GSH as substrates by following the change in absorbance at 340 nm (ε 1/4 9.6 mM^−1. cm^−1) for 1 min at 30°C as previously described ([28]). In the kinetic mechanism analysis of rSmGST, double reciprocal Lineweaver-Burk plot was used to graphically determine the apparent Km and Vmax values. Inhibition studies were performed according to the procedure of Tahir et al. ([29]). Different range of concentrations of Rose Bengal (RB, 0.1–1000 μM), Cibacron Blue (CB, 0.1–1000 μM), Bromosulfophtalein (BSP, 0.1–500 μM), and Tripheniltin chloride (TPT, 0.1–100 μM) were used as inhibitors respectively. The concentration of inhibitor giving 50% inhibition (IC50) was obtained by plotting the percent of residual activity vs the log of inhibitor concentration. The Ki values for each rSmGST inhibitor were determined according to methods described in Nava et al. ([30]). To ascertain which type of reversible enzyme inhibition occurs, initial-velocity enzyme reactions in the presence of the inhibitors were performed. The rSmGST was preincubated for a few seconds in the assay buffer with 4 mM GSH and inhibitor at the corresponding concentration (CB, 10, 30 μM; TPT, 4, 8 μM; BSP, 20, 60 μM and RB, 20, 60 μM). The reaction was initiated by addition of one of a range of 0.20 to 2.0 mM of different concentrations of CDNB. A set of reactions under identical conditions was performed for each inhibitor concentration and for the non-inhibitor control.

rSmGST [2] = molecular target: T1, rSmGST; experiment: Enzyme kinetics of rSmGST with the substrates GSH and CDNB (Lineweaver-Burk plot); type: biochemical; settings: for saturation point (substrate concentration): no further increase in enzyme activity above this concentration
Experimental: as §1

[3] = substrate: N[C@@H](CCC(=O)N[C@@H](CS)C(=O)NCC(=O)O)C(=O)O; experiment: as above; type: biochemical, Spirometra mansoni; settings: other: Lineweaver-Burk plot; GSH 0.5–5.0 mM or CDNB 0.2–2.0 mM as varied substrate; pH 6.5
Experimental: as §1, with “To ascertain which type of reversible enzyme inhibition occurs, initial-velocity enzyme reactions in the presence of the inhibitors were performed. The rSmGST was preincubated for a few seconds in the assay buffer with 4 mM GSH and inhibitor at the corresponding concentration (CB, 10, 30 μM; TPT, 4, 8 μM; BSP, 20, 60 μM and RB, 20, 60 μM). The reaction was initiated by addition of one of a range of 0.20 to 2.0 mM of different concentrations of CDNB. A set of reactions under identical conditions was performed for each inhibitor concentration and for the non-inhibitor control.” left out

[4] = Lineweaver-Burk plot, GSH 0.5–5.0 mM or CDNB 0.2–2.0 mM as varied substrate

Row | Molecule | Ki (rSmGST [1]) | inhibition pattern (rSmGST [1]) | maximal slope at IC50 of fractional velocity vs log inhibitor concentration (rSmGST [1]) | IC50 (rSmGST [1]) | other results
1 | O=C1OC(c2ccc(O)c(S(=O)(=O)O)c2)(c2ccc(O)c(S(=O)(=O)O)c2)c2c(Br)c(Br)c(Br)c(Br)c21 [Bromosulfophtalein] | 122 µM | non-competitive | −0.27 | 290 µM | –
2 | O=[N+]([O-])c1ccc(Cl)c([N+](=O)[O-])c1 [CDNB, 1-chloro-2,4-dinitrobenzene] | – | – | – | – | specific activity of rSmGST toward substrate (rSmGST [2]): 3.12 µmol/min/mg; Km (rSmGST [2]; [4]): 6.29 mM; Vmax (rSmGST [2]; [4]): 10.120 µmol/min/mL; saturation point (substrate concentration) (rSmGST [2]): 1.6 mM
3 | Nc1c(S(=O)(=O)O)cc(Nc2ccc(Nc3nc(Cl)nc(Nc4ccccc4S(=O)(=O)O)n3)c(S(=O)(=O)O)c2)c2c1C(=O)c1ccccc1C2=O [Cibacron Blue] | 20.1 µM | uncompetitive | −0.51 | 11.7 µM | –
4 | N[C@@H](CCC(=O)N[C@@H](CS)C(=O)NCC(=O)O)C(=O)O [GSH, glutathione] | – | – | – | – | saturation point (substrate concentration) (rSmGST [2]): 4.0 mM
5 | O=C([O-])c1c(Cl)c(Cl)c(Cl)c(Cl)c1-c1c2cc(I)c(=O)c(I)c-2oc2c(I)c([O-])c(I)cc12.[Na+].[Na+] [Rose Bengal] | 57.6 µM | uncompetitive | −0.63 | 34 µM | –
6 | [Cl][Sn]([c]1ccccc1)([c]1ccccc1)[c]1ccccc1 [Tripheniltin chloride] | 11.7 µM | non-competitive | −0.59 | 12.1 µM | –
7 | B1 | – | – | – | – | Km [3]: 0.78 mM; Vmax [3]: 1.146 µmol/min/mL
